Data from patent US6541631B1, “Methods of separating FTC isomers and derivatives thereof” (Pharma-Eco Laboratories, Inc., priority 1999, dated 2003).

Experiment: Solubility of cis-FTC Ester and cis-FTC Alcohol in various solvent systems
Type: physicochemical
Method: Therefore, the solubility of the FTC ester in several solvent systems was determined.
Therefore, the solubility of the cis-FTC Alcohol in several solvent systems was determined.

## Nc1nc(=O)n([C@@H]2CS[C@H](CO)O2)cc1F (relative stereo) [cis-FTC Alcohol, cis-5-fluoro-1-{2-(hydroxymethyl)-1,3-oxathiolan-5-yl}cytosine]
100% acetonitrile, RT
  Solubility: 0.38%
100% ethanol, RT
  Solubility: 0.51%
100% isopropyl alcohol, RT
  Solubility: 0.38%
100% methanol, 40-45° C.
  Solubility: 3.21%
100% methanol, RT
  Solubility: 0.77%
100% water, RT
  Solubility: 0.37%

## CCCC(=O)OC[C@@H]1O[C@H](n2cc(F)c(N)nc2=O)CS1 (relative stereo) [cis-FTC Ester, cis-{5-(4-amino-5-fluoro-2-oxo-1(2H)-pyrimidinyl)-1,3-oxathiolan-2-yl}methyl butanoate]
20% isopropyl alcohol/80% water, 40-45° C.
  Solubility: 3.59%
50% ethanol/50% methanol, 20° C.
  Solubility: 9.03%
70% water/30% 2-propanol, 20° C.
  Solubility: 2.40%
70% water/30% 2-propanol, 35° C.
  Solubility: 5.39%
74.6% water/13.99% 2-propanol/11.41% butanol, 20° C.
  Solubility: 3.16%
74.6% water/13.99% 2-propanol/11.41% butanol, 35° C.
  Solubility: 10.5%
80% water/5.5% 2-propanol/14.5% butanol, 20° C.
  Solubility: 2.55%
80% water/10% 2-propanol/10% butanol, 20° C.
  Solubility: 2.27%
80% water/10% 2-propanol/10% butanol, 35° C.
  Solubility: 5.94%
80% water/15% 2-propanol/5% butanol, 20° C.
  Solubility: 2.57%
80% water/15% 2-propanol/5% tetrahydrofuran, 20° C.
  Solubility: 0.89%
80% water/20% 2-butanol, 20° C.
  Solubility: 3.00%
80% water/20% 2-propanol, 20° C.
  Solubility: 1.60%
80% water/20% 2-propanol, 35° C.
  Solubility: 3.80%
80% water/20% ethanol, 20° C.
  Solubility: 0.52%
80% water/20% methanol, 20° C.
  Solubility: 0.81%
80% water/20% tetrahydrofuran, 20° C.
  Solubility: 1.80%
85% water/10% 2-propanol/5% tetrahydrofuran, 20° C.
  Solubility: 0.64%
85% water/15% 2-propanol, 35° C.
  Solubility: 0.70%
85% water/15% dimethylformamide, 20° C.
  Solubility: 1.24%
90% water/10% dimethylformamide, 20° C.
  Solubility: 1.13%
95% water/5% dimethylformamide, 20° C.
  Solubility: 0.47%
100% 2-propanol, 35° C.
  Solubility: 2.68%
100% acetonitrile, 40-45 C
  Solubility: 3.85%
100% acetonitrile, 50° C.
  Solubility: 6.20%
100% acetonitrile, RT
  Solubility: 1.41%
100% ethanol, 20° C.
  Solubility: 4.36%
100% ethanol, RT, 40-45 C
  Solubility: 1.28%
100% ethyl acetate, 20° C.
  Solubility: 3.03%??
100% isopropyl alcohol, RT, 40-45° C.
  Solubility: 0.38%
100% methanol, 20° C.
  Solubility: 11.73%
